Experiments:
wild oat = assay: Test B preemergence/postemergence greenhouse plant response rating 0 to 10; format: in vivo, Avena fatua; conditions: for Plant response rating, Wild oat: 0 to 10 scale
Outline: (§1)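 Both application timings were run together: seeds got compound preemergence, and established seedlings (two to eighteen cm) got it postemergence. Non-phytotoxic solvent carried the chemical. Ratings are visual, versus controls, at twelve to sixteen days.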

barnyardgrass = assay: Test C flood test plant response rating 0 to 100; format: in vivo, Echinochloa crus-galli
Outline: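 Compounds in non-phytotoxic solvent applied preemergence to sandy loam one day after planting, postemergence at the 1–4 leaf stage, or to ~2.5 cm floodwater over silt loam.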

crabgrass = assay: Test C preemergence/postemergence greenhouse plant response rating 0 to 100; format: in vivo, Digitaria sanguinalis; conditions: for Plant response rating, Crabgrass: 125 g/ha, 0 to 100 scale
Outline: (§2)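 Compounds in non-phytotoxic solvent went onto sandy loam before emergence (seeded one day earlier) or onto plants at the one-to-four leaf stage. Duck salad was treated via flood water (~2.5 cm, maintained) over silt loam.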

wheat = assay: as above; format: in vivo, Triticum aestivum; conditions: for Plant response rating, Wheat: 125 g/ha, 0 to 100 scale
Outline: as §2

downy brome = assay: as above; format: in vivo, Bromus tectorum; conditions: for Plant response rating Downy Brome: 125 g/ha, 0 to 100 scale
Outline: as §2

bedstraw = assay: Test B preemergence/postemergence greenhouse plant response rating 0 to 10; format: in vivo, Galium aparine; conditions: for Plant response rating, Bedstraw: 0 to 10 scale
Outline: as §1

rape = assay: Test C preemergence/postemergence greenhouse plant response rating 0 to 100; format: in vivo, Brassica napus; conditions: for Plant response rating, Rape: 125 g/ha, 0 to 100 scale
Outline: as §2

sugar beet = assay: Test B preemergence/postemergence greenhouse plant response rating 0 to 10; format: in vivo, Beta vulgaris; conditions: for Plant response rating, Sugar beet: 0 to 10 scale
Outline: as §1

cotton = assay: as above; format: in vivo, Gossypium hirsutum; conditions: for Plant response rating, Cotton: 0 to 10 scale
Outline: as §1

COCOc1cc(-c2nn3c(c2Cl)CCCC3)c(F)cc1Cl [Compound 58]
Plant response rating, Wild oat (wild oat; POSTEMERGENCE, Rate 50 g/ha): 7 | Plant response rating, Wild oat (wild oat; PREEMERGENCE, Rate 50 g/ha): 6 | Plant response rating (0 to 10 scale), Wild oat (wild oat; PREEMERGENCE, Rate 200 g/ha): 9 | Plant response rating, Wild oat (wild oat; Rate 200 g/ha, POSTEMERGENCE): 9 | Plant response rating (0 to 100), Barnyardgrass 2 (barnyardgrass; POSTEMERGENCE section, flood test, Rate 2 g/ha): 0 | Plant response rating (0 to 100), Barnyardgrass 2 (barnyardgrass; Rate 8 g/ha, under POSTEMERGENCE head (flood test species)): 95 | Plant response rating (0 to 100), Barnyardgrass 2 (barnyardgrass; Rate 31 g/ha, under POSTEMERGENCE head (flood test species)): 100 | Plant response rating Barnyardgrass 2 (barnyardgrass; flood test species listed under POSTEMERGENCE, 125 g/ha, 0 to 100 scale): 100 | Plant response rating, Crabgrass (crabgrass; POSTEMERGENCE): 70 | Plant response rating (0 to 100), Crabgrass (crabgrass; POSTEMERGENCE, Rate 2 g/ha): 20 | Plant response rating, Crabgrass (crabgrass; PREEMERGENCE): 100 | Plant response rating (0 to 100), Crabgrass (crabgrass; PREEMERGENCE, Rate 2 g/ha): 0 | Plant response rating (0 to 100), Crabgrass (crabgrass; Rate 8 g/ha, POSTEMERGENCE): 30 | Plant response rating (0 to 100), Crabgrass (crabgrass; Rate 8 g/ha, PREEMERGENCE): 0 | Plant response rating (0 to 100), Crabgrass (crabgrass; Rate 31 g/ha, POSTEMERGENCE): 60 | Plant response rating (0 to 100), Crabgrass (crabgrass; Rate 31 g/ha, PREEMERGENCE): 50 | Plant response rating, Wheat (wheat; POSTEMERGENCE): 60 | Plant response rating (0 to 100), Wheat (wheat; POSTEMERGENCE, Rate 2 g/ha): 30 | Plant response rating, Wheat (wheat; PREEMERGENCE): 30 | Plant response rating (0 to 100), Wheat (wheat; PREEMERGENCE, Rate 2 g/ha): 0 | Plant response rating (0 to 100), Wheat (wheat; Rate 8 g/ha, POSTEMERGENCE): 40 | Plant response rating (0 to 100), Wheat (wheat; Rate 8 g/ha, PREEMERGENCE): 0 | Plant response rating (0 to 100), Wheat (wheat; Rate 31 g/ha, POSTEMERGENCE): 50 | Plant response rating (0 to 100), Wheat (wheat; Rate 31 g/ha, PREEMERGENCE): 10 | Plant response rating Downy Brome (downy brome; POSTEMERGENCE): 90 | Plant response rating (0 to 100), Downy Brome (downy brome; POSTEMERGENCE, Rate 2 g/ha): 20 | Plant response rating Downy Brome (downy brome; PREEMERGENCE): 70 | Plant response rating (0 to 100), Downy Brome (downy brome; PREEMERGENCE, Rate 2 g/ha): 0 | Plant response rating (0 to 100), Downy Brome (downy brome; Rate 8 g/ha, POSTEMERGENCE): 40 | Plant response rating (0 to 100), Downy Brome (downy brome; Rate 8 g/ha, PREEMERGENCE): 0 | Plant response rating (0 to 100), Downy Brome (downy brome; Rate 31 g/ha, POSTEMERGENCE): 70 | Plant response rating (0 to 100), Downy Brome (downy brome; Rate 31 g/ha, PREEMERGENCE): 30 | Plant response rating, Bedstraw (bedstraw; POSTEMERGENCE, Rate 50 g/ha): 10 | Plant response rating, Bedstraw (bedstraw; PREEMERGENCE, Rate 50 g/ha): 6 | Plant response rating (0 to 10 scale), Bedstraw (bedstraw; PREEMERGENCE, Rate 200 g/ha): 9 | Plant response rating, Bedstraw (bedstraw; Rate 200 g/ha, POSTEMERGENCE): 9 | Plant response rating, Rape (rape; POSTEMERGENCE): 100 | Plant response rating (0 to 100), Rape (rape; POSTEMERGENCE, Rate 2 g/ha): 30 | Plant response rating, Rape (rape; PREEMERGENCE): 70 | Plant response rating (0 to 100), Rape (rape; PREEMERGENCE, Rate 2 g/ha): 0 | Plant response rating (0 to 100), Rape (rape; Rate 8 g/ha, POSTEMERGENCE): 50 | Plant response rating (0 to 100), Rape (rape; Rate 8 g/ha, PREEMERGENCE): 0 | Plant response rating (0 to 100), Rape (rape; Rate 31 g/ha, POSTEMERGENCE): 70 | Plant response rating (0 to 100), Rape (rape; Rate 31 g/ha, PREEMERGENCE): 10 | Plant response rating, Sugar beet (sugar beet; POSTEMERGENCE, Rate 50 g/ha): 10 | Plant response rating, Sugar beet (sugar beet; PREEMERGENCE, Rate 50 g/ha): 9 | Plant response rating (0 to 10 scale), Sugar beet (sugar beet; PREEMERGENCE, Rate 200 g/ha): 10 | Plant response rating, Sugar beet (sugar beet; Rate 200 g/ha, POSTEMERGENCE): 10 | Plant response rating, Cotton (cotton; POSTEMERGENCE, Rate 50 g/ha): 10 | Plant response rating, Cotton (cotton; PREEMERGENCE, Rate 50 g/ha): 0 | Plant response rating (0 to 10 scale), Cotton (cotton; PREEMERGENCE, Rate 200 g/ha): 0 | Plant response rating, Cotton (cotton; Rate 200 g/ha, POSTEMERGENCE): 10

— patent publication US6358885B1, “Substituted phenylheterocyclic herbicides” (Mississippi State University, priority 1992, dated 2002)
